Calls of active or inactive are those of the source. No cut-off for these calls is given here.
Key:
[1] = tested on: MDA-MB-468; test: Antiproliferative activity against human MDA-MB-468 cells assessed as reduction in cell viability incubated for 48 hrs by MTT assay; format: functional, cell-based; conditions: MDA-MB-468, 48 h
[2] = tested on: MDA-MB-231; test: Antiproliferative activity against human MDA-MB-231 cells assessed as reduction in cell viability incubated for 48 hrs by MTT assay; format: functional, cell-based; conditions: MDA-MB-231, 48 h
[3] = tested on: MCF7; test: Antiproliferative activity against human MCF7 cells incubated for 48 hrs by MTT assay; format: functional, cell-based; conditions: MCF7, 48 h
[4] = target: Signal transducer and activator of transcription 3 (Homo sapiens, UniProt P40763); test: Inhibition of STAT3 activation in human MDA-MB-231 cells assessed as reduction in STAT3 phosphorylation at Tyr705 residue at 1 uM measured after 24 hrs by Western blot analysis relative to control; format: cell-based
[5] = tested on: MDA-MB-231; test: Downregulation of total STAT3 expression in human MDA-MB-231 cells at 1 uM incubated for 24 hrs by Western blotting analysis; format: functional, cell-based
[6] = tested on: MDA-MB-468; test: Induction of apoptosis in human MDA-MB-468 cells assessed as early apoptotic cells at 3 uM measured after 24 hrs by Annexin V/propidium iodide (PI) double staining based flow cytometric analysis (reference value: 2.94 %); format: functional
[7] = tested on: MDA-MB-231; test: Induction of apoptosis in human MDA-MB-231 cells assessed as early apoptotic cells at 3 uM measured after 24 hrs by Annexin V/propidium iodide (PI) double staining based flow cytometric analysis (reference value: 1.98 %); format: functional
[8] = tested on: MDA-MB-468; test: Induction of apoptosis in human MDA-MB-468 cells assessed as late apoptotic cells at 3 uM measured after 24 hrs by Annexin V/propidium iodide (PI) double staining based flow cytometric analysis (reference value: 2.24 %); format: functional
[9] = tested on: MDA-MB-231; test: Induction of apoptosis in human MDA-MB-231 cells assessed as late apoptotic cells at 3 uM measured after 24 hrs by Annexin V/propidium iodide (PI) double staining based flow cytometric analysis (reference value: 2.22 %); format: functional

Chain of Signal transducer and activator of transcription 3 (P40763 whole entry): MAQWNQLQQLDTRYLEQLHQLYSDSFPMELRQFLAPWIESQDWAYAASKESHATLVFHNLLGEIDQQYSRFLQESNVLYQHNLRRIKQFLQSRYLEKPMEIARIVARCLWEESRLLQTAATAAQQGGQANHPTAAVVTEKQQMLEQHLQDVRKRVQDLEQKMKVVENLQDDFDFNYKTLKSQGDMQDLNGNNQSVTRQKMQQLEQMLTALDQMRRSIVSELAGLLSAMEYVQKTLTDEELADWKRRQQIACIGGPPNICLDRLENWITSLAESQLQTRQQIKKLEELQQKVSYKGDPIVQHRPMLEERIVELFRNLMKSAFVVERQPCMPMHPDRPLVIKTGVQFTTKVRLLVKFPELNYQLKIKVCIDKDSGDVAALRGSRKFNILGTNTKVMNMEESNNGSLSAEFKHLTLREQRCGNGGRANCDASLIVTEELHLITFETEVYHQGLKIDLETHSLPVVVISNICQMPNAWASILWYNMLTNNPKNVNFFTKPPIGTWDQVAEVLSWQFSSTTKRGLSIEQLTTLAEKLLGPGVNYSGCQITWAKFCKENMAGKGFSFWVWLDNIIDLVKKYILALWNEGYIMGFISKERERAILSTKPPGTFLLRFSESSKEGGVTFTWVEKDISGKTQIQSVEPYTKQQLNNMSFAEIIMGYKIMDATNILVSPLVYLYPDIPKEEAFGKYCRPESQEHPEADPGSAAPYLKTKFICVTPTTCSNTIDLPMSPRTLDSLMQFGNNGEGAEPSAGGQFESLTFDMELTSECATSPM

Row | IC50 [1] | IC50 [2] | SMILES | further results
1 | 2500 nM | 3690 nM | O=C1C(=O)c2c(oc3c2CCN(CCC(=O)N2CCCCC2)C3=O)-c2ccccc21 | 
2 | 630 nM | 880 nM | O=C1C(=O)c2c(oc3c(=O)n(CCN4CCCCC4)ccc23)-c2ccccc21 | 
3 | 1580 nM | 680 nM | C[C@@H]1CN(CCCN2CCc3c(oc4c3C(=O)C(=O)c3ccccc3-4)C2=O)CCO1 | 
4 | 1290 nM | 1230 nM | O=C1C(=O)c2c(oc3c2CCN(C2CCC(N4CCOCC4)CC2)C3=O)-c2ccccc21 (stereo not drawn) | 
5 | 2490 nM | > 4000 nM | C[C@@H]1CN(CCCN2CCc3c(oc4c3C(=O)C(=O)c3ccccc3-4)C2=O)C[C@H](C)N1 | 
6 | 2240 nM | 3050 nM | O=C1C(=O)c2c(oc3c2CCN(CCC(=O)N2CCOCC2)C3=O)-c2ccccc21 | 
7 | 2890 nM | 3510 nM | C[C@@H](C(N)=O)N1CCc2c(oc3c2C(=O)C(=O)c2ccccc2-3)C1=O | 
8 | 1960 nM | 1080 nM | O=C1C(=O)c2c(oc3c2CCN(CCN2CCOCC2)C3=O)-c2ccccc21 | 
9 | 2370 nM | 2940 nM | O=C1C(=O)c2c(oc3c2CCN(CCCn2ccnc2)C3=O)-c2ccccc21 | 
10 | 3690 nM | 3270 nM | O=CN1CCN(CCCN2CCc3c(oc4c3C(=O)C(=O)c3ccccc3-4)C2=O)CC1 | 
11 | 2230 nM | 1140 nM | O=C1C(=O)c2c(oc3c2CCN(CCCO)C3=O)-c2ccccc21 | 
12 | 2420 nM | 930 nM | COC(=O)[C@H](Cc1ccccc1)N1CCc2c(oc3c2C(=O)C(=O)c2ccccc2-3)C1=O | 
13 |  |  | CC1(C)CCC2=C(O1)c1ccccc1C(=O)C2=O [LAPACHONE] | IC50 [3]: 3990 nM
14 | 1550 nM | 1500 nM | COC(=O)CN1CCc2c(oc3c2C(=O)C(=O)c2ccccc2-3)C1=O | 
15 | 1460 nM | 3780 nM | COC(=O)[C@H](CO)N1CCc2c(oc3c2C(=O)C(=O)c2ccccc2-3)C1=O | 
16 | 2420 nM | 2530 nM | COC(=O)CCN1CCc2c(oc3c2C(=O)C(=O)c2ccccc2-3)C1=O | 
17 | 2420 nM | 930 nM | O=C1C(=O)c2c(oc3c2CCN([C@H](CO)Cc2ccccc2)C3=O)-c2ccccc21 | 
18 | 1560 nM | 540 nM | CN(C)CCN1CCc2c(oc3c2C(=O)C(=O)c2ccccc2-3)C1=O | inhibition [4]: Active
19 | 2660 nM | 2440 nM | COC(=O)[C@H](CC(C)C)N1CCc2c(oc3c2C(=O)C(=O)c2ccccc2-3)C1=O | 
20 | 2550 nM | 3070 nM | CNC(=O)[C@H](Cc1ccccc1)N1CCc2c(oc3c2C(=O)C(=O)c2ccccc2-3)C1=O | 
21 | 1460 nM | 920 nM | O=C1C(=O)c2c(oc3c2CCN(CCCN2CC4(COC4)C2)C3=O)-c2ccccc21 | 
22 | 1430 nM | 740 nM | CN(C)CCCN1CCc2c(oc3c2C(=O)C(=O)c2ccccc2-3)C1=O | 
23 | > 4000 nM | > 4000 nM | O=C1C(=O)c2c(oc3c2CCN([C@H](CO)CCCO)C3=O)-c2ccccc21 | 

Row | IC50 [1] | IC50 [2] | SMILES | further results
24 | 1310 nM | 610 nM | CCN(CC)CCN1CCc2c(oc3c2C(=O)C(=O)c2ccccc2-3)C1=O | inhibition [4]: Active
25 | 2450 nM | 2490 nM | CC(C)C[C@@H](CO)N1CCc2c(oc3c2C(=O)C(=O)c2ccccc2-3)C1=O | 
26 | 1720 nM | 800 nM | C[C@H]1CN(CCCN2CCc3c(oc4c3C(=O)C(=O)c3ccccc3-4)C2=O)CCO1 | 
27 | 1310 nM | 640 nM | C[C@@H](CO)N1CCc2c(oc3c2C(=O)C(=O)c2ccccc2-3)C1=O | 
28 | 410 nM | 1300 nM | CN1CCN(CCN2CCc3c(oc4c3C(=O)C(=O)c3ccccc3-4)C2=O)CC1 | 
29 | 2320 nM | 1930 nM | CNC(=O)[C@H](CC(C)C)N1CCc2c(oc3c2C(=O)C(=O)c2ccccc2-3)C1=O | 
30 | 1240 nM | 740 nM | O=C1C(=O)c2c(oc3c2CCN(CCCN2CCOCC2)C3=O)-c2ccccc21 | 
31 | 2370 nM | 3480 nM | COC(=O)CC[C@@H](C(=O)OC)N1CCc2c(oc3c2C(=O)C(=O)c2ccccc2-3)C1=O | 
32 | 2430 nM | 3330 nM | COC(=O)[C@H](Cc1ccc(O)cc1)N1CCc2c(oc3c2C(=O)C(=O)c2ccccc2-3)C1=O | 
33 | 1200 nM | 330 nM | O=C1C(=O)c2c(oc3c2CCN(CCCN2CCCCC2)C3=O)-c2ccccc21 | Activity [5]: Active; inhibition [4]: 100%
34 | 770 nM | 750 nM | CN1CCN(CCCN2CCc3c(oc4c3C(=O)C(=O)c3ccccc3-4)C2=O)CC1 | 
35 | 1210 nM | 680 nM | COC(=O)[C@H](C)N1CCc2c(oc3c2C(=O)C(=O)c2ccccc2-3)C1=O | 
36 | 1330 nM | 910 nM | O=C1C(=O)c2c(oc3c2CCN(CCCN2CCCC2)C3=O)-c2ccccc21 | 
37 | 1070 nM | 650 nM | CCN(CC)CCCN1CCc2c(oc3c2C(=O)C(=O)c2ccccc2-3)C1=O | inhibition [4]: Active
38 | 3590 nM | 3500 nM | CC(=O)c1cc2c(o1)C(=O)c1ccccc1C2=O [NAPABUCASIN] | Activity [6]: 8.87%; Activity [7]: 3.34%; Activity [8]: 6%; Activity [9]: 6.23%
39 | 1380 nM | 2620 nM | CNC(=O)[C@H](C)N1CCc2c(oc3c2C(=O)C(=O)c2ccccc2-3)C1=O | 
40 | 3070 nM | 2290 nM | O=C1C(=O)c2c(oc3c2CCN(CCCCO)C3=O)-c2ccccc21 | 
41 | 1210 nM | 840 nM | CN(C)CCn1ccc2c3c(oc2c1=O)-c1ccccc1C(=O)C3=O | 
42 | 1430 nM | 750 nM | O=C1C(=O)c2c(oc3c2CCN(CCO)C3=O)-c2ccccc21 | 
43 | 2370 nM | 2510 nM | COC(=O)CCCN1CCc2c(oc3c2C(=O)C(=O)c2ccccc2-3)C1=O | 
44 | 2620 nM | > 4000 nM | O=C1C(=O)c2c(oc3c2CCN([C@H](CO)Cc2ccc(O)cc2)C3=O)-c2ccccc21 | 
45 | 1180 nM | 1840 nM | CCN(CC)CCn1ccc2c3c(oc2c1=O)-c1ccccc1C(=O)C3=O | 

— ChEMBL document CHEMBL6103591, “Discovery of naphthoquinone-furo-piperidone derivatives as dual targeting agents of STAT3 and NQO1 for the treatment of breast cancer” (Eur J Med Chem, 2025)
